Experimental data taken from PMC7153278, “Discovery of Membrane-Bound Pyrophosphatase Inhibitors Derived from an Isoxazole Fragment” (ACS Medicinal Chemistry Letters, 2020).

Key:
[1] = molecular target: Thermotoga maritima mPPase (TmPPase) (Thermotoga maritima, UniProt Q9S5X0); experiment: TmPPase inhibition assay (96-well plate, orthophosphate determination); format: biochemical; conditions: for LE (ligand efficiency): computed using the pIC50 and the Heavy Atom Count (LEHA) normalization method, Discovery Studio; for IC50 / IC50 [CI95%]: purified TmPPase
Method: The inhibition assay was measured in 96 well plate assay as previously reported.5,6 Briefly, 1 µL of purified TmPPase (13 mg/mL) was reactivated in 99 µL of reactivation buffer (20 mM 2-(N-morpholino) ethanesulfonic acid (MES) pH 6.5, 3.5% (v/v) glycerol, 2 mM dithiothreitol (DTT), 4.5% dodecyl maltoside (DDM) and 12 mg/mL L-α-phosphatidylcholine from soybean) and incubated at 55 °C for 15 min. For the assay, to each tube strips, 0.2 µL of the reactivated enzyme was added to 14.8 µL of reaction buffer (200 mM Tris-Cl pH 8.0, 8.0 mM MgCl2, 333 mM KCl, and 67 mM NaCl) and 25 µL of inhibitor. The reaction mixtures were sealed with an adhesive sealing sheet (Thermo Scientific) and incubated at 71 °C for 5 min. The reactions were started with the addition of 10 µL of 2 mM sodium pyrophosphate, further incubation at 71 °C for 5 min and stopped by placing the reaction mixtures on ice for 10 min. The color development was done with the addition of ammonium heptamolybdate + ascorbic acid solution on ice for 10 min and then 90 µL of arsenic solution, at room temperature, for a minimum of 30 min. 180 µL of each reaction mixtures was then transferred into a clear 96 well polystyrene microplate and the absorbance was measured at 860 nm using a microplate spectrophotometer (MultiSkan Go, Thermo Scientific). The pilot inhibitor screening of 16 phosphate-mimicking fragments was done at 100 μM inhibitor concentration. Further screening was done with three different concentrations; 1 μM, 5 μM and 50 μM for soluble compounds, and 1 μM, 5 μM, and 20 μM for sparingly soluble compounds.6 The best hits were validated using 8 concentrations in triplicate in TmPPase.
The potent hits 12k and 12l compounds were then tested on the P. falciparum (PfPPase-VP1) membrane fractions expressed in baculovirus-infected insect cells (the expression method and further enzyme analysis will be described in more detail elsewhere). Briefly, to each tube strips, 2.4 µL of PfPPase-VP1 membrane fraction (5 mg/mL) was added into 12.6 µL of reaction buffer (200 mM Tris-Cl pH 8.0, 8.0 mM MgCl2, 333 mM KCl, 67 mM NaCl, 3.3 mM NaF, and 17 μM Gramicidin D) and 25 µL of inhibitor. The reaction mixtures were incubated at 30 °C for 5 min and the assay was started by the addition of 10 µL of 2 mM sodium pyrophosphate and further incubation at 30 °C for 10 min. The reaction termination and color development were done as before.
The in vitro anti-plasmodial activity assay strain 3D7 was maintained in culture as described previously.7 Briefly, parasites were cultured in O+ human erythrocytes at 5% haematocrit in RPMI - 1640 medium supplemented with 0.5% Albumax II (Gibco, Carlsbad, CA, USA), 200 μM hypoxanthine (Sigma, St. Louis, MO, USA) and 20 μg/mL gentamycin (Gibco). Parasites were synchronized with the sorbitol method as described. 8 Test compound was dissolved in DMSO to make a stock solution of 10 mM. Two -fold serial dilutions of the test compound were made in the culture medium to cover the range of 400 µM – 400 nM. Fifty microliters of each dilution were mixed in 96 well plate with 150 µL of 2% haematocrit of 0.5% parasitemia (ring stage). DMSO concentration in the highest compound concentration w as 0.1%. After 72 h incubation at 37 °C, the parasite growth was quantified using fluorescent SYBR Green I ® -based assay as described. 9 The half-maximal inhibitory concentration (IC 50) of the test compound was assessed using the non-linear regression fit model in Prism 7 (GraphPad Software). The potent anti-malarial drug, artemisinin, was use in parallel as a positive control. Each concentration of the test compound was tested in duplicate and the assay was repeated three times. The mean and standard deviation of the three repeats were used to estimate the IC50.
IC50 determinations were done using R 3.6.110 and the n-parameter logistic regression (nplr) package11 version 0.1-7. In this package, the weighted nplr, given x (compound concentrations) and […]

[2] = Colloidal aggregation under TmPPase assay conditions (nephelometry); format: physicochemical
Method: Aggregation data for 5, 12k and 12l (Figure S1)
Potential colloidal aggregation in the TmPPase model system was studied at five concentrations (50 µM, 25 µM, 10 µM, 5 µM, and 1 µM). The original assay conditions were simulated, and the light scattering of potential aggregates in the mixture was studied by nephelometric methods using Nepheloskan Ascent® (Labsystems, Finland). Aggregation of the blank and compounds 5, 12k and 12l were measured as triplicates from one independent experiment at three different voltages (300 V, 400 V and 500 V) at room temperature.
5 µM and 1 µM concentrations the obtained values were close to those observed by the blank, thereby […]
Figure S1. Aggregation data for compounds 5, 12k and 12l. The data, measured in relative nephelometric units (RNU), is shown as the mean ± SD and normalized to the blank.
(1 picture or pasted object on this page, not shown here)
Experimental procedures and characterization data
Commercial analogues were retrieved by screening the ZINC12 database1 (clean drug-like subset; downloaded on 27.04.2016) using a KNIME2 workflow connected to the RDKit3 nodes. The SAR analyses and docking studies (data not shown) underlying this work were conducted using the Schrödinger molecular modeling platform (Canvas and Glide modules, respectively)4 .
Compounds 1–7, 13–20 and 24 were obtained from commercial suppliers. Supporting Information, Table S1 summarizes the compounds tested. Compound purity was >95% as determined by LC-MS and characterized by HRMS. For all commercial compounds after the initial screen, purity was tested independently from the vendor specification (a few compounds of lower purity are reported only in Supporting Information). To evaluate potential aggregation of samples in the TmPPase based assay, aggregate formation in the assay conditions was studied at five concentrations (50 μM, 25 μM, 10 μM, 5 μM, and 1 μM) for compounds 5, 12k and 12l (Figure S1).
All chemicals used were commercially available. Reactions using anhydrous conditions were conducted in oven-dried (130 °C, >24 h) glassware, purged with argon prior to use. Microwave reactions were performed using a Biotage Initiator+ instrument (Uppsala, Sweden). The progress of the reactions was monitored by thin-layer chromatography on silica gel 60-F254 aluminum plates and visualized by using a dual short/long wave (254/366 nm) UV lamp. The combined organic solutions from extractions were dried over anhydrous Na2SO4, filtered and concentrated with a rotary evaporator at reduced pressure. Flash SiO2 column chromatography was performed with automated high performance flash chromatography, Biotage Isolera™ Spektra Systems with ACI™ and Assist (ISO-1SW Isolera One) equipped with a variable UV-VIS (200–800 nm) photodiode array (Uppsala, Sweden) using SNAP KP-SIL/Ultra 10 g or 25 g cartridges and the indicated mobile phase gradient.
The reactions were not optimized and all the yields are given for purified products.
Characterization of the synthesized products were done by NMR and MS analysis. 1H and 13C NMR spectra were acquired at 298 K on a Bruker Ascend 400 MHz – Avance III HD NMR spectrometer (Bruker Corporation, Billerica, MA, USA). Chemical shifts (δ) are reported in parts per million (ppm) relative to the residual solvent signals: CDCl3 7.26 and 77.16 ppm, CD3OD 3.31 and 49.00 ppm, DMSO-d6 2.50 and 39.52 ppm for 1H and 13C NMR, respectively. […] High resolution mass (HRMS-ESI) data was reported for the calculated and experimentally […]

[3] = IC50 [CI95%] (µM), unrounded values of the molecular formula strings file
[4] = IC50 [CI95%], 95% confidence interval in square brackets
[5] = 95% confidence interval in square brackets

Chain of Thermotoga maritima mPPase (TmPPase) (Q9S5X0 whole entry): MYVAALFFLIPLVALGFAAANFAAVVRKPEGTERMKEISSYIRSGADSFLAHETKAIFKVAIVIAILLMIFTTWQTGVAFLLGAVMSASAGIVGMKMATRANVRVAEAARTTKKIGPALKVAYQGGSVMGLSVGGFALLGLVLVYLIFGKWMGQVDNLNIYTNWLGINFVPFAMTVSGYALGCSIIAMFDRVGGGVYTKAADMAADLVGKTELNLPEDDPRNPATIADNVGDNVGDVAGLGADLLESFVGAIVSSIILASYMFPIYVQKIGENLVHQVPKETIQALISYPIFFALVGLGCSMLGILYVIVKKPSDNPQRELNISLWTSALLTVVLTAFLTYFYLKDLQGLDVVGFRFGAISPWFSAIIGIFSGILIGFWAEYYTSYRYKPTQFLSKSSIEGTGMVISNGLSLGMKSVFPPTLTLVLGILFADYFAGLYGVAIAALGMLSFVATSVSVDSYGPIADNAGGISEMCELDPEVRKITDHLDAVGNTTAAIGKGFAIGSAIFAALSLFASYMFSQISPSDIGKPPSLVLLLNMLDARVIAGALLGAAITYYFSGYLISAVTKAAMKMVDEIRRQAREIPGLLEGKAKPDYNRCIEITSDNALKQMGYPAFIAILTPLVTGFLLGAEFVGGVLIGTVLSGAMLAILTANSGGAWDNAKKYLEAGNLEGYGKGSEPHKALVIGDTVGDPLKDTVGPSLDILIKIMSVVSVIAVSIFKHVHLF

Cc1nc(-c2cc(C(=O)O)no2)cs1 [Compound 5]
LE (ligand efficiency) [1]: 0.34
aggregation (light scattering) ([2]; 50, 25, 10, 5 and 1 µM, room temperature): no detectable aggregation at all

Cc1cc(C)cc(-c2cc(C(=O)Oc3ccccc3Br)no2)c1 [Compound 12k]
LE (ligand efficiency) [1]: 0.22
aggregation (light scattering) ([2]; at 10 µM, 5 µM and 1 µM): only minor/no detectable aggregation
aggregation (light scattering) ([2]; at 50 µM and 25 µM): showed aggregate formation

CCOC(=O)c1cc(-c2ccc(OC)c(S(=O)(=O)Nc3ccc(F)c(Cl)c3)c2)on1 [SI-31]
IC50 [1, 3]: 58 µM
IC50 [1, 4]: 58 µM

CCOC(=O)c1cc(-c2ccc(OC)c(S(=O)(=O)Nc3ccc(Cl)cc3F)c2)on1 [SI-32]
IC50 [1, 3]: 122 µM
IC50 [1, 4]: 122 µM

CCOC(=O)c1cc(-c2ccc(OC)c(S(=O)(=O)Nc3ccc(Cl)cc3)c2)on1 [SI-33]
IC50 [1, 3]: 280 µM
IC50 [1, 4]: 280 µM

CC(C)(C)c1cc(CC(=O)O)cc(C(C)(C)C)c1 [SI-42]
IC50 [CI95%] [1, 5]: Inactive

CC(C)(C)c1cc(C(N)=O)cc(C(C)(C)C)c1 [SI-43]
IC50 [CI95%] [1, 5]: Inactive

CC(C)(C)c1cc(C(O)CC(=O)NN)cc(C(C)(C)C)c1 (stereo not drawn) [SI-44]
IC50 [CI95%] [1, 5]: Inactive

CC(C)(C)c1cc(CN)cc(C(C)(C)C)c1 [SI-45]
IC50 [CI95%] [1, 5]: Inactive

CC(C)(C)c1cc(CO)cc(C(C)(C)C)c1 [SI-46]
IC50 [CI95%] [1, 5]: Inactive

CC(C)(C)c1cc(C(=O)Nc2ccccc2C(=O)O)cc(C(C)(C)C)c1 [SI-47]
IC50 [CI95%] [1, 5]: Inactive

CC(C)(C)c1cc(C(=O)NCCN2CCOCC2)cc(C(C)(C)C)c1 [SI-48]
IC50 [CI95%] [1, 5]: Inactive

CC(C)(C)c1cc(C(=O)OCCN2CCOCC2)cc(C(C)(C)C)c1 [SI-49]
IC50 [1, 3]: 340 µM
IC50 [1, 4]: 340 µM

CCOC(=O)c1cc(-c2ccccc2)[nH]n1 [SI-50]
IC50 [CI95%] [1, 5]: Inactive

CCOC(=O)c1cc(-c2ccc([N+](=O)[O-])cc2)[nH]n1 [SI-51]
IC50 [CI95%] [1, 5]: Inactive

O=C(O)c1csc(-c2ccc(C(F)(F)F)cc2)n1 [SI-52]
IC50 [CI95%] [1, 5]: Inactive

O=C(Oc1ccccc1Br)c1cc(-c2ccc([N+](=O)[O-])cc2)[nH]n1 [SI-53]
IC50 [CI95%] [1, 5]: Slightly

Cc1ccc(-c2cc(C(=O)Oc3ccccc3Br)no2)cc1C [SI-54]
IC50 [1, 3]: 17.4 µM
IC50 [1, 4]: 17 µM
LE (ligand efficiency) [1]: 0.20
